Reference: US20070128217A1 (priority 2003, published 2007)

Tests used:
[1] = tested on: antibodies in sera from SARS patients (sera 1a, 1b, 2, 6, 37, 62, London, SARS-yellow, SARS-green); format: binding, human; set-up: Binding of serum 6 to linear peptides of protein X1 of SARS-CoV Urbani / Binding of serum 37 to linear peptides of protein X1 of SARS-CoV Urbani / Binding of serum 6 to looped/cyclic peptide (PEPSCAN-ELISA) / Binding of serum 37 to looped/cyclic peptide (PEPSCAN-ELISA) / Binding of serum 37 to looped/cyclic peptides of protein X1 of SARS-CoV Urbani / Binding of serum 6 to linear peptides of protein X2 / Binding of serum 37 to linear peptides of protein X2 / Binding of serum 37 to looped/cyclic peptides of protein X2 of SARS-CoV Urbani / Binding of serum 6 to linear peptides of protein M of SARS-CoV Urbani / Binding of serum 37 to linear peptides of protein M of SARS-CoV Urbani / Binding of serum 6 to looped/cyclic peptides of protein M of SARS-CoV Urbani / Binding of serum 37 to looped/cyclic peptides of protein M of SARS-CoV Urbani / Binding of serum 6 to linear peptides of protein X3 of SARS-CoV Urbani / Binding of serum 37 to linear peptides of protein X3 of SARS-CoV Urbani / Binding of serum 37 to looped/cyclic peptides of protein X3 of SARS-CoV Urbani / Binding of serum 6 to linear peptides of protein X4 of SARS-CoV Urbani / Binding of serum 37 to linear peptides of protein X4 of SARS-CoV Urbani / Binding of serum 37 to looped/cyclic peptides of protein X4 of SARS-CoV Urbani / Binding of serum 6 to linear peptides of protein X5 of SARS-CoV Urbani / Binding of serum 37 to linear peptides of protein X5 of SARS-CoV Urbani / Binding of serum 37 to looped/cyclic peptides of protein X5 of SARS-CoV Urbani / Binding of serum 6 to linear peptides of protein N of SARS-CoV Urbani / Binding of serum 37 to linear peptides of protein N of SARS-CoV Urbani / Binding of serum 6 to linear peptide (PEPSCAN-ELISA) / Binding of serum 1a to looped/cyclic peptides of protein N of SARS-CoV Urbani / Binding of serum 1b to looped/cyclic peptides of protein N of SARS-CoV Urbani / Binding of serum 2 to looped/cyclic peptides of protein N of SARS-CoV Urbani / Binding of serum 6 to looped/cyclic peptides of protein N of SARS-CoV Urbani / Binding of serum 37 to looped/cyclic peptides of protein N of SARS-CoV Urbani / Binding of serum 62 to looped/cyclic peptides of protein N of SARS-CoV Urbani / Binding of serum London to looped/cyclic peptides of protein N of SARS-CoV Urbani / Binding of serum SARS-green to looped/cyclic peptides of protein N of SARS-CoV Urbani: unit not given here
[2] = tested on: control sera (pooled serum of ten healthy LUMC hospital workers; commercial negative donor pooled serum from the Dutch bloodbank); format: binding, human; set-up: Binding of Control serum LUMC to linear peptides / Binding of Control serum Blood-bank to linear peptides / Binding of Control serum LUMC to looped peptides / Binding of Control Serum Blood-Bank to Looped peptides / Binding of Control serum LUMC to linear peptides of the protein M of SARS-CoV Urbani / Binding of Control serum Blood-bank to linear peptides of the protein M of SARS-CoV Urbani / Binding of Control serum LUMC to looped peptides of the protein M of SARS-CoV Urbani / Binding of Control Serum Blood-Bank to Looped peptides of the protein M of SARS-CoV Urbani: unit not given here
[3] = tested on: rabbit serum obtained by immunizing a rabbit with the SARS-CoV strain Frankfurt 1; format: binding; set-up: Binding of a rabbit serum to linear peptides / Binding of a rabbit serum to looped peptides / Rabbit serum linear peptides / Rabbit serum looped peptides / Binding of a rabbit serum to linear peptides of protein N of SARS-CoV Urbani (Rabbit serum linear peptides) / Binding of a rabbit serum to looped/cyclic peptides of protein N of SARS-CoV Urbani (Rabbit serum looped peptides): unit not given here

TSTHFAFACADGTRH
Binding of serum 1a to linear peptides of protein X4 of SARS-CoV Urbani [1]: 0.7 | Binding of serum 1a to looped/cyclic peptides of protein X4 of SARS-CoV Urbani [1]: 0.8 | Binding of serum 1b to linear peptides of protein X4 of SARS-CoV Urbani [1]: 0.6 | Binding of serum 1b to looped/cyclic peptides of protein X4 of SARS-CoV Urbani [1]: 0.7 | Binding of serum 2 to linear peptides of protein X4 of SARS-CoV Urbani [1]: 0.5 | Binding of serum 2 to looped/cyclic peptides of protein X4 of SARS-CoV Urbani [1]: 0.6 | Binding of serum 6 to linear peptides of protein X4 of SARS-CoV Urbani [1]: 0.7 | Binding of serum 6 to looped/cyclic peptides of protein X4 of SARS-CoV Urbani [1]: 0.7 | Binding of serum 37 to linear peptides of protein X4 of SARS-CoV Urbani [1]: 0.7 | Binding of serum 37 to looped/cyclic peptides of protein X4 of SARS-CoV Urbani [1]: 0.7 | Binding of serum 62 to linear peptides of protein X4 of SARS-CoV Urbani [1]: 0.8 | Binding of serum 62 to looped/cyclic peptides of protein X4 of SARS-CoV Urbani [1]: 0.8 | Binding of serum London to linear peptides of protein X4 of SARS-CoV Urbani [1]: 0.8 | Binding of serum London to looped/cyclic peptides of protein X4 of SARS-CoV Urbani [1]: 0.4 | Binding of serum SARS-green to linear peptides of protein X4 of SARS-CoV Urbani [1]: 0.6 | Binding of serum SARS-green to looped/cyclic peptides of protein X4 of SARS-CoV Urbani [1]: 0.6 | Binding of serum SARS-yellow to linear peptides of protein X4 of SARS-CoV Urbani [1]: 0.2 | Binding of serum SARS-yellow to looped/cyclic peptides of protein X4 of SARS-CoV Urbani [1]: 0.7 | Binding of Control Serum Blood-Bank to Looped peptides [2]: 0.8 | Binding of Control serum Blood-bank to linear peptides [2]: 0.7 | Binding of Control serum LUMC to linear peptides [2]: 0.8 | Binding of Control serum LUMC to looped peptides [2]: 0.8 | Rabbit serum linear peptides [3]: 0.5 | Rabbit serum looped peptides [3]: 0.7

TTDTGIENATFFIFN
Binding of serum 1a to linear peptides of protein X1 of SARS-CoV Urbani [1]: 0.8 | Binding of serum 1a to looped/cyclic peptides of protein X1 of SARS-CoV Urbani [1]: 0.6 | Binding of serum 1b to linear peptides of protein X1 of SARS-CoV Urbani [1]: 0.5 | Binding of serum 1b to looped/cyclic peptides of protein X1 of SARS-CoV Urbani [1]: 0.6 | Binding of serum 2 to linear peptides of protein X1 of SARS-CoV Urbani [1]: 0.6 | Binding of serum 2 to looped/cyclic peptides of protein X1 of SARS-CoV Urbani [1]: 0.7 | Binding of serum 6 to linear peptides of protein X1 of SARS-CoV Urbani [1]: 0.5 | Binding of serum 6 to looped/cyclic peptides of protein X1 of SARS-CoV Urbani [1]: 0.6 | Binding of serum 37 to linear peptides of protein X1 of SARS-CoV Urbani [1]: 0.6 | Binding of serum 37 to looped/cyclic peptides of protein X1 of SARS-CoV Urbani [1]: 1.0 | Binding of serum 62 to linear peptides of protein X1 of SARS-CoV Urbani [1]: 0.5 | Binding of serum 62 to looped/cyclic peptides of protein X1 of SARS-CoV Urbani [1]: 0.9 | Binding of serum London to linear peptides of protein X1 of SARS-CoV Urbani [1]: 0.3 | Binding of serum London to looped/cyclic peptides of protein X1 of SARS-CoV Urbani [1]: 0.3 | Binding of serum SARS-green to linear peptides of protein X1 of SARS-CoV Urbani [1]: 0.4 | Binding of serum SARS-green to looped/cyclic peptides of protein X1 of SARS-CoV Urbani [1]: 0.6 | Binding of serum SARS-yellow to linear peptides of protein X1 of SARS-CoV Urbani [1]: 0.5 | Binding of serum SARS-yellow to looped/cyclic peptides of protein X1 of SARS-CoV Urbani [1]: 0.5 | Binding of Control Serum Blood-Bank to Looped peptides [2]: 0.8 | Binding of Control serum Blood-bank to linear peptides [2]: 0.6 | Binding of Control serum LUMC to linear peptides [2]: 1.0 | Binding of Control serum LUMC to looped peptides [2]: 0.8 | Binding of a rabbit serum to linear peptides [3]: 0.1 | Binding of a rabbit serum to looped peptides [3]: 0.5

TVATSRTLSYYKLGA
Binding of serum 1a to linear peptides of protein M of SARS-CoV Urbani [1]: 0.7 | Binding of serum 1a to looped/cyclic peptides of protein M of SARS-CoV Urbani [1]: 0.8 | Binding of serum 1b to linear peptides of protein M of SARS-CoV Urbani [1]: 0.6 | Binding of serum 1b to looped/cyclic peptides of protein M of SARS-CoV Urbani [1]: 0.4 | Binding of serum 2 to linear peptides of protein M of SARS-CoV Urbani [1]: 0.7 | Binding of serum 2 to looped/cyclic peptides of protein M of SARS-CoV Urbani [1]: 0.6 | Binding of serum 6 to linear peptides of protein M of SARS-CoV Urbani [1]: 0.6 | Binding of serum 6 to looped/cyclic peptides of protein M of SARS-CoV Urbani [1]: 1.1 | Binding of serum 37 to linear peptides of protein M of SARS-CoV Urbani [1]: 0.8 | Binding of serum 37 to looped/cyclic peptides of protein M of SARS-CoV Urbani [1]: 0.5 | Binding of serum 62 to linear peptides of protein M of SARS-CoV Urbani [1]: 0.8 | Binding of serum 62 to looped/cyclic peptides of protein M of SARS-CoV Urbani [1]: 0.5 | Binding of serum London to linear peptides of protein M of SARS-CoV Urbani [1]: 0.4 | Binding of serum London to looped/cyclic peptides of protein M of SARS-CoV Urbani [1]: 0.3 | Binding of serum SARS-green to linear peptides of protein M of SARS-CoV Urbani [1]: 0.3 | Binding of serum SARS-green to looped/cyclic peptides of protein M of SARS-CoV Urbani [1]: 0.4 | Binding of serum SARS-yellow to linear peptides of protein M of SARS-CoV Urbani [1]: 0.1 | Binding of serum SARS-yellow to looped/cyclic peptides of protein M of SARS-CoV Urbani [1]: 0.5 | Binding of Control Serum Blood-Bank to Looped peptides of the protein M of SARS-CoV Urbani [2]: 0.7 | Binding of Control serum Blood-bank to linear peptides of the protein M of SARS-CoV Urbani [2]: 0.8 | Binding of Control serum LUMC to linear peptides of the protein M of SARS-CoV Urbani [2]: 0.6 | Binding of Control serum LUMC to looped peptides of the protein M of SARS-CoV Urbani [2]: 0.7 | Rabbit serum linear peptides [3]: 0.8 | Rabbit serum looped peptides [3]: 0.2

TYQLRARSVSPKLFI
Binding of serum 1a to linear peptides of protein X4 of SARS-CoV Urbani [1]: 0.8 | Binding of serum 1a to looped/cyclic peptides of protein X4 of SARS-CoV Urbani [1]: 0.9 | Binding of serum 1b to linear peptides of protein X4 of SARS-CoV Urbani [1]: 0.6 | Binding of serum 1b to looped/cyclic peptides of protein X4 of SARS-CoV Urbani [1]: 0.7 | Binding of serum 2 to linear peptides of protein X4 of SARS-CoV Urbani [1]: 0.7 | Binding of serum 2 to looped/cyclic peptides of protein X4 of SARS-CoV Urbani [1]: 0.8 | Binding of serum 6 to linear peptides of protein X4 of SARS-CoV Urbani [1]: 0.9 | Binding of serum 6 to looped/cyclic peptides of protein X4 of SARS-CoV Urbani [1]: 1.3 | Binding of serum 37 to linear peptides of protein X4 of SARS-CoV Urbani [1]: 0.8 | Binding of serum 37 to looped/cyclic peptides of protein X4 of SARS-CoV Urbani [1]: 0.6 | Binding of serum 62 to linear peptides of protein X4 of SARS-CoV Urbani [1]: 0.9 | Binding of serum 62 to looped/cyclic peptides of protein X4 of SARS-CoV Urbani [1]: 0.8 | Binding of serum London to linear peptides of protein X4 of SARS-CoV Urbani [1]: 0.9 | Binding of serum London to looped/cyclic peptides of protein X4 of SARS-CoV Urbani [1]: 1.4 | Binding of serum SARS-green to linear peptides of protein X4 of SARS-CoV Urbani [1]: 0.7 | Binding of serum SARS-green to looped/cyclic peptides of protein X4 of SARS-CoV Urbani [1]: 0.2 | Binding of serum SARS-yellow to linear peptides of protein X4 of SARS-CoV Urbani [1]: 0.6 | Binding of serum SARS-yellow to looped/cyclic peptides of protein X4 of SARS-CoV Urbani [1]: 0.9 | Binding of Control Serum Blood-Bank to Looped peptides [2]: 0.9 | Binding of Control serum Blood-bank to linear peptides [2]: 1.0 | Binding of Control serum LUMC to linear peptides [2]: 0.7 | Binding of Control serum LUMC to looped peptides [2]: 0.9 | Recognition of the peptide by the rabbit serum [3]: recognized
